Assays:
[1] = system: CF HBECs; details: Ringer with 50 mM NaCl exchanged for 100 mM POPSO; 3 h
[2] = system: NL HBECs; experiment: ASL height by confocal microscopy in normal lung (NL) HBECs; format: cell-based, human; details: Ringer with 50 mM NaCl exchanged for 100 mM POPSO; 3 h
Experimental: To label airway surface liquid, Ringer containing Texas Red-dextran (2 mg/ml; Invitrogen) was added to human bronchial epithelial culture mucosal surfaces. Perfluorocarbon was added mucosally to prevent evaporation of the airway surface liquid and the culture placed in a chamber containing 100 μl Ringer on the stage of a Leica SP5 confocal microscope with a 63× glycerol immersion objective. 5 points per culture were scanned and an average airway surface liquid height determined. For confocal microscopy human bronchial epithelial cultures were bathed serosally in a modified Ringer solution containing (mM): 116 NaCl, 10 NaHCO3, 5.1 KCl, 1.2 CaCl2, 1.2 MgCl2, 20 TES, 10 glucose, pH 7.4). At all other times, human bronchial epithelial cultures were maintained in a modified BEGM growth medium which contained 24 mM NaHCO3 gassed with 5% CO2.
To label the ASL, PBS containing 10 kDa Rhodamine dextran (0.2-2 mg/mL; Invitrogen, Carlsbad, Calif., USA) was added to HBEC mucosal surfaces as previously described (Tarran et al., Mol. Cell 8:149 (2001)). When added, peptides with or without 100 nM neutrophil elastase, 1 U/mL aprotinin, activated neutrophil supernatant (ANS) (Haynes et al., Am. J. Physiol. Heart Circ. Physiol. 294:H379 (2008)) or 10 μM sivelestat (Sigma-Aldrich, St Louis, Mo., USA) were added to the mucosal surface along with the Rhodamine dextran. Bumetanide (100 μM) was added to the serosal solution.

[3] = biological target: T1, αβγENaC (Rattus norvegicus, UniProt P37089+P37090+P37091); experiment: Amiloride-sensitive whole cell current, two electrode voltage clamp, Xenopus laevis oocytes expressing αβγENaC; format: cell-based; details: PLUNC family member co-expressed with α,β,γ ENaC
T1 construct: expressed in transfected cells; host or cells: Xenopus laevis oocytes (cRNA injection)
T1 sequence (P37089 1-698): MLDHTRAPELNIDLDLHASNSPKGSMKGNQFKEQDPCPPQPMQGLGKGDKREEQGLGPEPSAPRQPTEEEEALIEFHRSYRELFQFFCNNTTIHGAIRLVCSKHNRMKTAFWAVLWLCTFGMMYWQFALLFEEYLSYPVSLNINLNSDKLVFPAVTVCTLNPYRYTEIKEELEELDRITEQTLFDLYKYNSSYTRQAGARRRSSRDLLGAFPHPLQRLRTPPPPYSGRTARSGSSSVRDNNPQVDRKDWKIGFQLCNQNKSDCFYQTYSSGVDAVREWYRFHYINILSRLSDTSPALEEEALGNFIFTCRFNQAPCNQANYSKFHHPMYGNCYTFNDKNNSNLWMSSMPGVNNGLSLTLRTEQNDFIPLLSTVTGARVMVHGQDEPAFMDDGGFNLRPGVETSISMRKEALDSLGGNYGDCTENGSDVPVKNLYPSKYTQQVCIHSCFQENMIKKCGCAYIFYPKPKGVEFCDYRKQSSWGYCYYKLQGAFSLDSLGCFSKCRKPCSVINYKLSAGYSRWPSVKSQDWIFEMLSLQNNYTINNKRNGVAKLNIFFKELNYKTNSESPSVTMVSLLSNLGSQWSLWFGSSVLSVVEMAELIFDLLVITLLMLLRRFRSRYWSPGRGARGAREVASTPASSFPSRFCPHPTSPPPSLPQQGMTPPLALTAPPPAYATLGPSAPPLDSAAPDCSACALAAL
T1 sequence (P37090 1-638): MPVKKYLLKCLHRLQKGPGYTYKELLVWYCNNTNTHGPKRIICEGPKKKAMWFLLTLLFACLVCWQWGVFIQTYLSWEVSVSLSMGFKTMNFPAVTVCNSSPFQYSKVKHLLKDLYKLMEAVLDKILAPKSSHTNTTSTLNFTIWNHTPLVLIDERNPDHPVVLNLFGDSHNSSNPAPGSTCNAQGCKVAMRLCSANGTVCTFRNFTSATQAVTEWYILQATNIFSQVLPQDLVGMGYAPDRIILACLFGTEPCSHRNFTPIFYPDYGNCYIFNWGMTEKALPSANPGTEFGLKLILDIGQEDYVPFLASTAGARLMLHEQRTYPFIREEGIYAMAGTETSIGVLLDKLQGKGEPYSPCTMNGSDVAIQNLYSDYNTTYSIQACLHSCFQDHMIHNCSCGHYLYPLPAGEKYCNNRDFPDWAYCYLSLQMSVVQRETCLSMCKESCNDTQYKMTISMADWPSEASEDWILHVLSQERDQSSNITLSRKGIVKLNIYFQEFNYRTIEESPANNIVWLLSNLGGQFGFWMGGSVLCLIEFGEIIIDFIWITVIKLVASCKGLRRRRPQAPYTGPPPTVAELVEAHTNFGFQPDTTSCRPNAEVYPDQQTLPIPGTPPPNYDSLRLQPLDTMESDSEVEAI
T1 sequence (P37091 1-650): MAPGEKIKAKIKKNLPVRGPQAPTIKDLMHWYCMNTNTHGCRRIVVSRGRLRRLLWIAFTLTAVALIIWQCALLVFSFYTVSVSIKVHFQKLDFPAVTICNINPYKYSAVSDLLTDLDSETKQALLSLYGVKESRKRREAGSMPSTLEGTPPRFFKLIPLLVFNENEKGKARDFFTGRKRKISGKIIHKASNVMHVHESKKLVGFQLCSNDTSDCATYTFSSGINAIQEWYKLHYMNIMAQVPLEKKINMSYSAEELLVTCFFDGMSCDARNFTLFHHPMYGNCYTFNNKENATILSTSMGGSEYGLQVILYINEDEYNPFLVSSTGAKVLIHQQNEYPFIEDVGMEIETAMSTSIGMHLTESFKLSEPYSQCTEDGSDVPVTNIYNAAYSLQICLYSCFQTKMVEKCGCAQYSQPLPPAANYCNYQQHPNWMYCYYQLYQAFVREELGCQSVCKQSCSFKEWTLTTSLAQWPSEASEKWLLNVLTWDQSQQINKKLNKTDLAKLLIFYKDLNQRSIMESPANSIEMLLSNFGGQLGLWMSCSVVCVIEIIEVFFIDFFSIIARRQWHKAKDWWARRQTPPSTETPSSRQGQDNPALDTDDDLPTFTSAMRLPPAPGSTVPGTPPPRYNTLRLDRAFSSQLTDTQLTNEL
Experimental: Xenopus laevis oocytes were harvested and injected as described (Donaldson, et al., J. Biol. Chem. 277:8338 (2002)). Defolliculated healthy stage V-VI oocytes were injected with 0.3 ng of CRNA of each ENaC subunit. Injected oocytes were kept in modified Barth's saline (in mM: 88 NaCl, 1 KCl, 2.4 NaHCO3, 0.3 Ca(NO3)2, 0.41 CaCl2, 0.82 MgSO4, and 15 HEPES, adjusted to pH 7.35 with Tris). Oocytes were studied 24 hr after injection using the two electrode voltage clamp technique as previously described (Donaldson, et al., J. Biol. Chem. 277:8338 (2002)). Oocytes were clamped at a holding potential of −60 mV. The change in amiloride-sensitive whole cell current as an indicator of ENaC activity was determined by subtracting the corresponding current value measured in the presence of 10 μM amiloride from that measured before the application of amiloride. Where appropriate, oocytes were incubated with G22-A39 or ABC for 1 h prior to recording. In some experiments β-ENaC^S518C was used which forms ENaCs that are locked into an open probability near 1.0 by exposure to the sulthydral reactive reagent [2-(Trimethyl-ammonium)ethyl]methanethiosulphonate bromide (MTSET). MTSET was added at a concentration of 1 mM to the oocyte bath as previously described (Snyder, J. Clin. Invest. 105: 45 (2000)).

Molecule | CF ASL height [1] | NL ASL height [2] | amiloride-sensitive ENaC current relative to control, co-expression [3]
O=S(=O)(O)CC(O)CN1CCN(CC(O)CS(=O)(=O)O)CC1 (stereo not drawn) [POPSO, reference compound] | significantly elevated | no effect | 
LPLUNC1: long PLUNC family member co-expressed in Xenopus oocytes (protein) TLSPTAVLILGPKVIKEKLTQELKDHNATSILQQLPLLSAMREKPAGGIPVLGSLVNTVLKHIIWLKVITANILQLQVKPSANDQELLVKIPLDMVAGFNTPLVKTIVEFHMTTEAQATIRMDTSASGPTRLVLSDCATSHGSLRIQLLHKLSFLVNALAKQVMNLLVPSLPNLVKNQLCPVIEASFNGMYADLLQLVKVPISLSIDRLEFDLLYPAIKGDTIQLYLGAKLLDSQGKVTKWFNNSAASLTMPTLDNIPFSLIVSQDVVKAAVAAVLSPEEFMVLLDSVLPESAHRLKSSIGLINEKAADKLGSTQIVKILTQDTPEFFIDQGHAKVAQLIVLEVFPSSEALRPLFTLGIEASSEAQFYTKGDQLILNLNNISSDRIQLMNSGIGWFQPDVLKNIITEIIHSILLPNQNGKLRSGVPVSLVKALGFEAAESSLTKDALVLTPASLWKPSSPVSQ |  |  | no significant ENaC current reduction
